The nature of data set [1]: Compound cytotoxicity, XTT-based colorimetric assay. The class given is cell-based. Conditions: human; uninfected MT2 cells, day 4, XTT; read-out: CC50. An outline of the steps: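 Uninfected MT2 cells, antiviral-assay protocol without virus; XTT colorimetric readout day 4; CC50 reported.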
Background: Tetrazolium dyes change colour on reduction, which living cells bring about.

Data set [2] concerns recombinant NL4-3 virus (nef section replaced with Renilla luciferase gene) in MT-2 cells. Kind of data set: HIV cell culture assay (antiviral activity, luciferase readout). The class given is cell-based. To be noted: Renilla, NL43, MT-2 cells infected for 4-5 days with recombinant NL4-3 Renilla luciferase virus. An outline of the steps:
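EC50 was derived by median-effect fitting of Renilla luciferase signal from MT-2 cells. These cells were infected for 4–5 days with NL4-3 reporter virus (nef partly replaced by luciferase; made in 293T cells) in the presence of serially diluted compound. Activity was quantified with a live-cell luciferase substrate.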

Where only a bound is given, the exact number is not on record here.

What is called CC50 is the concentration that lowers cell viability or growth by half. Usually EC50 stands for the midpoint of the concentration-response curve. On to `Cc1cc(C2(F)CCC(F)(F)CC2)nc2nc([C@H](Cc3cc(F)cc(F)c3)NC(=O)Cn3nc(C(F)F)c4c3C(F)(F)[C@@H]3C[C@H]43)n(-c3ccc(Cl)c4c(NS(C)(=O)=O)nn([C@H](C)CN5C[C@@H](C)O[C@@H](C)C5)c34)c(=O)c12` (atropisomer, axis not shown; (P)) [Example 729, N-[(1S)-1-[(3P)-3-{4-chloro-1-[(2R)-1-[(2R,6S)-2,6-dimethylmorpholin-4-yl]propan-2-yl]-3-methanesulfonamido-1H-indazol-7-yl}-5-methyl-4-oxo-7-(1,4,4-trifluorocyclohexyl)-3H,4H-pyrido[2,3-d]pyrimidin-2-yl]-2-(3,5-difluorophenyl)ethyl]-2-[(2S,4R)-9-(difluoromethyl)-5,5-difluoro-7,8-diazatricyclo[4.3.0.0^2,^4]nona-1(6),8-dien-7-yl]acetamide], for which the CC50 at 4 days in data set [1] was over 20000 pM. Besides, in data set [2], the EC50 was 23 pM.
Turning to `Cc1cc(C2CCC(F)(F)CC2)nc2nc([C@H](Cc3cc(F)cc(F)c3)NC(=O)Cn3nc(C(F)F)c4c3C(F)(F)[C@@H]3C[C@H]43)n(-c3ccc(Cl)c4c(NS(C)(=O)=O)nn([C@H](C)CN5CC(C)(C)OC(C)(C)C5)c34)c(=O)c12` (atropisomer, axis not shown; (P)) [Example 733, N-[(1S)-1-[(3P)-3-{4-chloro-3-methanesulfonamido-1-[(2R)-1-(2,2,6,6-tetramethylmorpholin-4-yl)propan-2-yl]-1H-indazol-7-yl}-7-(4,4-difluorocyclohexyl)-5-methyl-4-oxo-3H,4H-pyrido[2,3-d]pyrimidin-2-yl]-2-(3,5-difluorophenyl)ethyl]-2-[(2S,4R)-9-(difluoromethyl)-5,5-difluoro-7,8-diazatricyclo[4.3.0.0^2,^4]nona-1(6),8-dien-7-yl]acetamide], the CC50 at 4 days in data set [1] is over 20000 pM. In data set [2], the EC50 turned out to be 37 pM.
The matching figures for `C[C@@H](CN1C[C@H](F)C[C@H](F)C1)n1nc(NS(C)(=O)=O)c2c(Cl)ccc(-n3c([C@H](Cc4cc(F)cc(F)c4)NC(=O)Cn4nc(C(F)F)c5c4C(F)(F)[C@@H]4C[C@H]54)nc4nc(C5CCC(F)(F)CC5)cc(C5CC5)c4c3=O)c21` (atropisomer, axis not shown; (P)) [Example 735, N-[(1S)-1-[(3P)-3-{4-chloro-1-[(2S)-1-[(3R,5S)-3,5-difluoropiperidin-1-yl]propan-2-yl]-3-methanesulfonamido-1H-indazol-7-yl}-5-cyclopropyl-7-(4,4-difluorocyclohexyl)-4-oxo-3H, 4H-pyrido[2,3-d]pyrimidin-2-yl]-2-(3,5-difluorophenyl)ethyl]-2-[(2S,4R)-9-(difluoromethyl)-5,5-difluoro-7,8-diazatricyclo[4.3.0.0^2,^4]nona-1(6),8-dien-7-yl]acetamide]: over 20000 pM and 18 pM.
With `Cc1cc(C2(F)CCC(F)(F)CC2)nc2nc([C@H](Cc3cc(F)cc(F)c3)NC(=O)Cn3nc(C(F)F)c4c3C(F)(F)[C@@H]3C[C@H]43)n(-c3ccc(Cl)c4c(NS(C)(=O)=O)nn(CCc5cccnc5)c34)c(=O)c12` (atropisomer, axis not shown; (P)) [Example 740, N-[(1S)-1-[(3P)-3-{4-chloro-3-methanesulfonamido-1-[2-(pyridin-3-yl)ethyl]-1H-indazol-7-yl}-5-methyl-4-oxo-7-(1,4,4-trifluorocyclohexyl)-3H,4H-pyrido[2,3-d]pyrimidin-2-yl]-2-(3,5-difluorophenyl)ethyl]-2-[(2S,4R)-9-(difluoromethyl)-5,5-difluoro-7,8-diazatricyclo[4.3.0.0^2,^4]nona-1(6),8-dien-7-yl]acetamide], in data set [1], the CC50 at 4 days was over 20000 pM. The EC50 in data set [2] came to 21 pM.
In the same order, the values of `Cc1cc(C2CCC(F)(F)CC2)nc2nc([C@H](Cc3cc(F)cc(F)c3)NC(=O)Cn3nc(C(F)F)c4c3C(F)(F)[C@@H]3C[C@H]43)n(-c3ccc(Cl)c4c(NS(C)(=O)=O)nn([C@@H](C)CN5CC(C)(C)OC(C)(C)C5)c34)c(=O)c12` (atropisomer, axis not shown; (P)) [Example 742, N-[(1S)-1-[(3P)-3-{4-chloro-3-methanesulfonamido-1-[(2S)-1-(2,2,6,6-tetramethylmorpholin-4-yl)propan-2-yl]-1H-indazol-7-yl}-7-(4,4-difluorocyclohexyl)-5-methyl-4-oxo-3H,4H-pyrido[2,3-d]pyrimidin-2-yl]-2-(3,5-difluorophenyl)ethyl]-2-[(2S,4R)-9-(difluoromethyl)-5,5-difluoro-7,8-diazatricyclo[4.3.0.0^2,^4]nona-1(6),8-dien-7-yl]acetamide] are over 20000 pM and 26 pM.
In the same order, the values of `Cc1cc(C2(F)CCC(F)(F)CC2)nc2nc([C@H](Cc3cc(F)cc(F)c3)NC(=O)Cn3nc(C(F)F)c4c3C(F)(F)[C@@H]3C[C@H]43)n(-c3ccc(Cl)c4c(NS(C)(=O)=O)nn([C@H](C)C(=O)N5C[C@@H](C)O[C@@H](C)C5)c34)c(=O)c12` (atropisomer, axis not shown; (P)) [Example 743, N-[(1S)-1-[(3P)-3-{4-chloro-1-[(2R)-1-[(2R,6S)-2,6-dimethylmorpholin-4-yl]-1-oxopropan-2-yl]-3-methanesulfonamido-1H-indazol-7-yl}-5-methyl-4-oxo-7-(1,4,4-trifluorocyclohexyl)-3H,4H-pyrido[2,3-d]pyrimidin-2-yl]-2-(3,5-difluorophenyl)ethyl]-2-[(2S,4R)-9-(difluoromethyl)-5,5-difluoro-7,8-diazatricyclo[4.3.0.0^2,^4]nona-1(6),8-dien-7-yl]acetamide] are over 20000 pM and 16 pM.
In the same order, the values of `CC(=O)c1cc(C2CCC(F)(F)CC2)nc2nc([C@H](Cc3cc(F)cc(F)c3)NC(=O)Cn3nc(C(F)F)c4c3C(F)(F)[C@@H]3C[C@H]43)n(-c3ccc(Cl)c4c(NS(C)(=O)=O)nn(CCN5CCC(F)(F)CC5)c34)c(=O)c12` (atropisomer, axis not shown; (P)) [Example 746, N-[(1S)-1-[(3P)-5-acetyl-3-{4-chloro-1-[2-(4,4-difluoropiperidin-1-yl)ethyl]-3-methanesulfonamido-1H-indazol-7-yl}-7-(4,4-difluorocyclohexyl)-4-oxo-3H,4H-pyrido[2,3-d]pyrimidin-2-yl]-2-(3,5-difluorophenyl)ethyl]-2-[(2S,4R)-9-(difluoromethyl)-5,5-difluoro-7,8-diazatricyclo[4.3.0.0^2,4]nona-1(6),8-dien-7-yl]acetamide] are over 20000 pM and 8 pM.
Turning to `Cc1cc(C2(F)CCC(F)(F)CC2)nc2nc([C@H](Cc3cc(F)cc(F)c3)NC(=O)Cn3nc(C(F)F)c4c3C(F)(F)[C@@H]3C[C@H]43)n(-c3ccc(Cl)c4c(NS(C)(=O)=O)nn([C@@H](C)CN5C[C@@H](C)O[C@@H](C)C5)c34)c(=O)c12` (atropisomer, axis not shown; (P)) [Example 747, N-[(1S)-1-[(3P)-3-{4-chloro-1-[(2S)-1-[(2R,6S)-2,6-dimethylmorpholin-4-yl]propan-2-yl]-3-methanesulfonamido-1H-indazol-7-yl}-5-methyl-4-oxo-7-(1,4,4-trifluorocyclohexyl)-3H,4H-pyrido[2,3-d]pyrimidin-2-yl]-2-(3,5-difluorophenyl)ethyl]-2-[(2S,4R)-9-(difluoromethyl)-5,5-difluoro-7,8-diazatricyclo[4.3.0.0^2,^4]nona-1(6),8-dien-7-yl]acetamide], the CC50 at 4 days in data set [1] is over 20000 pM. In addition, in data set [2], the EC50 is 17 pM.
The matching figures for `Cc1cc(C2(F)CCC(F)(F)CC2)nc2nc([C@H](Cc3cc(F)cc(F)c3)NC(=O)Cn3nc(C(F)F)c4c3C(F)(F)[C@@H]3C[C@H]43)n(-c3ccc(Cl)c4c(NS(C)(=O)=O)nn([C@H](C)C(=O)N5CC(C)(C)OC(C)(C)C5)c34)c(=O)c12` (atropisomer, axis not shown; (P)) [Example 749, N-[(1S)-1-[(3P)-3-{4-chloro-3-methanesulfonamido-1-[(2R)-1-oxo-1-(2,2,6,6-tetramethylmorpholin-4-yl)propan-2-yl]-1H-indazol-7-yl}-5-methyl-4-oxo-7-(1,4,4-trifluorocyclohexyl)-3H,4H-pyrido[2,3-d]pyrimidin-2-yl]-2-(3,5-difluorophenyl)ethyl]-2-[(2S,4R)-9-(difluoromethyl)-5,5-difluoro-7,8-diazatricyclo[4.3.0.0^2,^4]nona-1(6),8-dien-7-yl]acetamide]: over 20000 pM and 18 pM.
The matching figures for `Cc1cc(C2(F)CCC(F)(F)CC2)nc2nc([C@H](Cc3cc(F)cc(F)c3)NC(=O)Cn3nc(C(F)F)c4c3C(F)(F)[C@@H]3C[C@H]43)n(-c3ccc(Cl)c4c(NS(C)(=O)=O)nn([C@@H](C)CN5C[C@H](F)C[C@H](F)C5)c34)c(=O)c12` (atropisomer, axis not shown; (P)) [Example 753, N-[(1S)-1-[(3P)-3-{4-chloro-1-[(2S)-1-[(3R,5S)-3,5-difluoropiperidin-1-yl]propan-2-yl]-3-methanesulfonamido-1H-indazol-7-yl}-5-methyl-4-oxo-7-(1,4,4-trifluorocyclohexyl)-3H,4H-pyrido[2,3-d]pyrimidin-2-yl]-2-(3,5-difluorophenyl)ethyl]-2-[(2S,4R)-9-(difluoromethyl)-5,5-difluoro-7,8-diazatricyclo[4.3.0.0^2,^4]nona-1(6),8-dien-7-yl]acetamide]: over 20000 pM and 26 pM.

These data come from patent publication US12594276B2, “Inhibitors of human immunodeficiency virus replication” (ViiV Healthcare UK (No.5) Limited, priority 2024, dated 2026).
